Source: US8519173B2, “Plant growth regulator” (Shiseido Company, Ltd., priority 2009, dated 2013)

Columns and labels:
[1] = system: morning glory (variety: Murasaki); test: Bud formation promotion activity on morning glory; format: in vivo; conditions: sprayed at 100 μM; treatment in dark 14 h or 15 h; buds measured on day 14 under continuous light at 25° C.; N=8 plants; compared with water (FIG. 1)
Method: 9 g of morning glory (variety: Murasaki) seeds were treated with concentrated sulfuric acid for 20 minutes followed by allowing to stand overnight in running water. Next, the seeds were allowed to take root by allowing to stand for 24 hours on wet sea sand with the omphalos portion of the seed facing upward. The seeds that had taken root were planted to a depth of about 1.5 cm to 2.0 cm in sea sand and cultured under continuous light (for about 5 days).
All of the morning glory plants that foliated as a result of this culturing were transferred to a culture broth (containing KNO3 (250 mg), NH4NO3 (250 mg), KH2PO4 (250 mg), MgSO4.7H2O (250 mg), MnSO4.4H2O (1 mg), Fe-citrate-n-hydrate (6 mg), H3BO3 (2 mg), CuSO4.5H2O (0.1 mg), ZeSO4.7H2O (0.2 mg), Na2MoO4.2H2O (0.2 mg) and Ca(H2PO4)2.2H2O (250 mg) in 1000 mL of distilled water).
0.10 μM and 100 μM aqueous solutions of the present ketol fatty acid derivative obtained in the aforementioned Example 1 were sprayed onto this culture system and subjected to treatment in dark for 14 hours or 15 hours. Following this treatment in dark, water or the present ketol fatty acid derivative was sprayed again followed by growing the plants under continuous light for 14 days at 25° C. and measuring the buds that formed on day 14. […]

[2] = Stability on standing at room temperature; format: physicochemical; conditions: allowed to stand at room temperature

stability (loss of activity) [2] | Compound | increase in number of buds that formed [1]
– | CC/C=C\CC1CC1CC(=O)C(O)CCCCCCCC(=O)O (centres unmarked) | more than 200%
losing activity in a few days | CC/C=C\C/C=C\CC(=O)C(O)CCCCCCCC(=O)O (stereo not drawn) [α-ketol unsaturated fatty acid] | –
